Experimental data reported in patent publication US20190210969A1, “INTRAESOPHAGEAL ADMINISTRATION OF TARGETED NITROXIDE AGENTS FOR PROTECTION AGAINST IONIZING IRRADIATION-INDUCED ESOPHAGITIS” (University of Pittsburgh - Of the Commonwealth System of …, priority 2010, published 2019).

Experiments:
[1] = tested on: mice exposed to total body irradiation; test: Survival of mice after total body irradiation; format: in vivo, mouse; details: for protection from death: vs TEMPO or F14 alone, preliminary data
Experimental: In FIG. 4A, mice received intraperitoneal injection of 10 mg per kilogram of each of the chemicals indicated, then 24 hours later received 9.75 Gy total body irradiation according to published methods. Mice were followed for survival according to IACUC regulations. […] (P=0.0008). In FIG. 4B, mice received intraperitoneal injection of JP4-039 either 10 minutes before (square symbols) or 4 hours after (triangle symbols) irradiation with 9.75 Gy.
Groups of 15 mice received intraperitoneal injection of 10 mg. per kilogram of each indicated GS-nitroxide compound or carrier (Cremphora plus alcohol at 1 to 1 ratio, then diluted 1 to 10 in distilled water). Mice received 10 mg per kilogram intra-peritoneal injection 24 hours prior to total body irradiation. Control mice received radiation alone. […] (P=0.0005) FIG. 6 is a graph showing that GS-nitroxide JP4-039 is an effective hematopoietic cell radiation mitigator when delivered 24 hr after irradiation. Irradiation survival curves were performed on cells from the 32D cl 3 mouse hematopoietic progenitor cell line, incubated in 10 μM JP4-039 for 1 hour before irradiation, or plated in methylcellulose containing 10 μM […] after irradiation. Cells were irradiated from 0 to 8 Gy, plated in 0.8% methylcellulose containing media, and incubated for 7 days at 37° C. Colonies of greater than 50 cells were counted and data analyzed by linear quadratic and single-hit, multi-target models.
The above methods are based on preliminary data showing that JP4-039 administered via i.p. injection at 10 mg/kg 10 minutes before either […] [FIG. 21A] or 9.15 Gy [FIG. 21B] total-body irradiation protected C57BL/6NHsd female mice from esophagitis-induced death compared to those that received either TEMPO or F14 alone (p=0.0301 and p=0.010, respectively).

[2] = tested on: C57BL/6NHsd mice, upper body irradiation; test: Survival after upper body (thoracic) irradiation, irradiation-induced esophagitis; format: in vivo, mouse; details: for protection (survival): 4 μg JP4-039 in 110 μl F15 10 minutes before, MnSOD-PL 24 hours prior, preliminary data
From the text: Animals and animal care. C57BL/6HNsd female and C57BL/6JHNsd-GFP male mice (22-22 gm) were housed, five per cage and fed standard laboratory chow according to previous publications (3). C57BL/6NHsd mice (15 per group) were irradiated (details are given in the next section) and received swallowed JP4-039 or MnSOD-PL pre- or post-radiation. The mice were monitored for development of esophagitis.
Irradiation. Mice were irradiated to 28 or 29 Gy to the upper body using a JL Shepherd Mark I cesium irradiator (J.L. Shepherd and Associates, San Fernando, Ca, USA) ([…]), according to published methods (Epperly M W, et al. Zhang X, Nie S, Cao S, Kagan V, Tyurin V and Greenberger J S: MnSOD-plasmid liposome gene therapy effects on ionizing irradiation induced lipid peroxidation of the esophagus. In Vivo 19: 997-1004, 2005). The head and abdomen were shielded, as described previously (Stickle R L, et al. Prevention of irradiation-induced esophagitis by plasmid/liposome delivery of the human manganese superoxide dismutase (MnSOD) transgene. Radiat Oncol Invest Clinical & Basic Res 7: 204-217, 1999), so that only the thoracic cavity received irradiation.
Intraesophageal drug administration. The methods for preparation of MnSOD-plasmid liposomes using PNVL3 lipid have been published previously (Epperly M W, et al. Modulation of radiation-induced cytokine elevation associated with esophagitis and esophageal stricture by manganese superoxide dismutase-plasmid/liposome (MnSOD-PL) gene therapy. Radiat Res 155: 2-14, 2001). Briefly, 100 μl liposomes containing […] plasmid were injected by syringe intraesophageally into non-anesthetized mice immediately after they received 100 μl distilled water.
The stock solutions described above were diluted, so that the total amount of JP4-039 administered to each animal was 400 μg. Mice were immobilized for irradiation with intraperitoneal Nembutal anesthesia after administration of JP4-039 as described above. Mice were exposed to single-dose (29 Gy) or fractionated radiation (11.5 Gy per day for four days) to the upper body.

Which protection from death ([1]; 10 mg/kg i.p. 10 minutes before 9/5 Gy total-body irradiation, p=0.0301) does the source give for CC(C)C[C@@H](/C=C/CC(=O)NC1CC(C)(C)N([O])C(C)(C)C1)NC(=O)OC(C)(C)C [JP4-039, TEMPO-4-yl-(S,E)-5-(tert-butoxycarbonylamino)-7-methyloct-3-enamide] here?
The protection from death was “protected”.

What about the protection from death ([1]; 10 mg/kg i.p. 10 minutes before 9.15 Gy total-body irradiation, p=0.010) of the same molecule?
Its protection from death is “protected”.

What about the survival of mice ([1]; 10 mg/kg i.p. 24 hours before 9.75 Gy total body irradiation, vs irradiated control, P=0.0008) of the same molecule?
Its survival of mice is “significant increase in survival”.

What about the survival of mice ([1]; 10 mg/kg i.p. 24 hours prior to 9.5 Gy total body irradiation, P=0.0005) of the same molecule?
Its survival of mice is “increases survival”.

What about the survival ([2]; 400 μg in F15 immediately prior to single fraction 29 Gy thoracic irradiation, vs F15 vehicle only, p=0.0384) of the same molecule?
Its survival is “increased survival”.

What about the “protection (survival)” value ([2]; 29 Gy upper body irradiation, vs F15 or radiation alone) of the same molecule?
The value was “protective”.

What about the “protection (survival)” value ([2]; four daily sessions of 12 Gy, p=0.0430) of the same molecule?
Its value is “protective”.

And the survival ([2]; prior to each of four fractions of 11.5 Gy thoracic irradiation, vs F15 only, p=0.0388)?
The survival was “increased survival”.
